Among the data in ChEMBL document CHEMBL1126535, “Angiotensin II receptor antagonists containing a phenylpyridine element” (Bioorg Med Chem Lett, 1993) are IC50 and Activity values, retold here.

A word on the pIC50: it is the IC50 on a negative log10 scale, so that one unit is a factor of ten. Lower therefore signals a large IC50.

Molecules are shown by their SMILES. pIC50: −log10 of the molar value. Some results are limits rather than exact numbers.

The target in experiment [1] is T1, Type-2 angiotensin II receptor (Rattus norvegicus, UniProt P35351).
T1 sequence (P35351 whole entry): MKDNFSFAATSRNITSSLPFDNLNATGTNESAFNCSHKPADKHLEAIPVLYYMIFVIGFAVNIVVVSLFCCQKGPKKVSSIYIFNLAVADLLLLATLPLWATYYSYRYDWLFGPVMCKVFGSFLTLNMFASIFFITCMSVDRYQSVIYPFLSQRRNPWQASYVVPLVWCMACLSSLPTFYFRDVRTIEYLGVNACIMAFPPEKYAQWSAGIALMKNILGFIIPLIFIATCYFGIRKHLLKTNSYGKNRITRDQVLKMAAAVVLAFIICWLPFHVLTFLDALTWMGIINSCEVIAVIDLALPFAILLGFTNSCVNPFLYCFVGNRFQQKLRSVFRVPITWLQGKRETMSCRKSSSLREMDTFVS
Kind of experiment: In vitro binding affinity towards Angiotensin II receptor, type 2 determined as its ability to displace 125I-Sarl,Ile8-AII from the receptor expressed in rat midbrain membrane. It is filed as cell membranes.

In experiment [2] the target is T2, Type-1 angiotensin II receptor (Oryctolagus cuniculus, UniProt P34976).
T2 sequence (P34976 whole entry): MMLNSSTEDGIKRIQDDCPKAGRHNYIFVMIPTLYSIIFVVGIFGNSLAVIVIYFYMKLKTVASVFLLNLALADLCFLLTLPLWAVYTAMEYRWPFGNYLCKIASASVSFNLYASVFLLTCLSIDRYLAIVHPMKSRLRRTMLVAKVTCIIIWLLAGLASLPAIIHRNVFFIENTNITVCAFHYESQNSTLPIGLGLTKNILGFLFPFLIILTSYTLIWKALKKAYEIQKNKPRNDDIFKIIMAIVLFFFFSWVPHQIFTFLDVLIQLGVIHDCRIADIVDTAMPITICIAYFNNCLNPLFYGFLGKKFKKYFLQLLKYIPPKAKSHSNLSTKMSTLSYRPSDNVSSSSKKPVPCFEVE
As to the kind of experiment: In vitro binding affinity towards Angiotensin II type 1-AT1 receptor determined as its ability to displace 125I-Sarl,Ile8-AII from the receptor expressed in rabbit aorta membrane. It is filed as cell membranes.

The subject of another experiment is Rattus norvegicus. As to the kind of experiment: In vivo potency for the inhibition of pressor response in normotensive rats (i.v.). It is filed as functional.

With `CCc1nc2c(C)cc(C)nc2n1Cc1ccc(-c2ccccc2-c2nnn[nH]2)cc1` [L-158809], the pIC50 in experiment [1] was < 4.70.
As for `CCCc1nc2c(C)ccnc2n1Cc1ccc(-c2cccnc2-c2nn[nH]n2)cc1`, the pIC50 in experiment [2] is 7.22; in experiment [1], < 4.70.
In the case of `CCCc1nc2c(C)ccnc2n1Cc1ccc(-c2ccccc2-c2nn[nH]n2)cc1`, the pIC50 in experiment [2] was 9.00.
`CCCc1nc2c(C)ccnc2n1Cc1ccc(-c2ccncc2-c2nn[nH]n2)cc1` displayed an Activity with Rattus norvegicus of 0.1 mg/kg. For the same molecule, the pIC50 is 8.40 in experiment [2] and < 4.70 in experiment [1].
For `CCCc1nc2c(C)ccnc2n1Cc1ccc(-c2ncccc2-c2nn[nH]n2)cc1`, in experiment [1], the pIC50 was < 4.70.
